Test results reported in US20170319480A1, “PHARMACEUTICAL FORMULATION” (Boehringer Ingelheim International GmbH, priority 2014, published 2017).

Test: Bioavailability of afatinib in fed state
Type: in vivo
Conditions: adults
Text: As decreased bioavailability of afatinib has been observed in adults ad fed state, the oral solution is not intended to be administered with food or drinks.

bioavailability in fed state: decreased
Structure (SMILES): CN(C)C/C=C/C(=O)Nc1cc2c(Nc3ccc(F)c(Cl)c3)ncnc2cc1O[C@H]1CCOC1 [afatinib, 4-[(3-chloro-4-fluorophenyl)amino]-6-{[4-(N,N-dimethylamino)-1-oxo-2-buten-1-yl]amino}-7-((S)-tetrahydrofuran-3-yloxy)-quinazoline]
